# Test results reported in patent US20190151403A1, “NOVEL CYCLOSPORIN DERIVATIVES AND USES THEREOF” (S&T Global Inc., priority 2016, published 2019).
# Read-outs that look alike come from different tables or passages of the source. Starred links: 1 amine or outer side, 2 acyl side, 3 side chain; linkers in the order of their positions; H or OH if unused. Non-standard residues stand in square brackets, D forms with d. Residues, ends and D or L forms follow the SMILES beside them. ξ: configuration not given here. *: point of attachment. NMeThr(4R-Me,4-(CH2)6NHAc) = CN[C@H](C(=O)O)[C@H](O)[C@H](C)CCCCCCNC(C)=O; MeBmt = C/C=C/C[C@@H](C)[C@@H](O)[C@H](NC)C(=O)O; X1 = CCN(CC)CCS[C@H](C(=O)[*:2])N(C)[*:1]; NMeIle(3ξ) = CCC(C)[C@H](NC)C(=O)O; NMeL = CN[C@@H](CC(C)C)C(=O)O; NMeV = CN[C@H](C(=O)O)C(C)C; dNMeC = CN[C@H](CS)C(=O)O; dNMeS = CN[C@H](CO)C(=O)O; dNMeA = CN[C@H](C)C(=O)O; Abu = CC[C@H](N)C(=O)O; Butyl(4-OH) = OCCCC*
# Assays:
# [1] = system: HCV replicon in cell line ET (luc-ubi-neo/ET), Huh7 human hepatoma cell line; experiment: HCV subgenomic replicon assay (luciferase end point); assay type: cell-based
# Method: Anti-HCV activity of cyclosporine derivatives were evaluated in the HCV subgenomic replicon assay. The assay use the cell line ET (luc-ubi-neo/ET), which is a Huh7 human hepatoma cell line harboring an HCV replicon with a stable luciferase (Luc) reporter. HCV RNA replication was assessed by quantifying HCV replicon-derived luciferase activity. The antiviral activity of cyclosporine analogs were evaluated after drug treatment to derive EC50 and EC90 values by using the luciferase end point (Krieger, N., et al., 2001, J. Viral. 75, 4614-4624; Pietschmann, T., et al., 2002, J. Viral. 76, 4008-4021; each of which is incorporated herein by reference). Cytotoxicity was assessed in parallel.
# [2] = molecular target: cyclophilin A (Homo sapiens, UniProt P62937); conditions: published, Gallay et al. 2016; read-out: cyclophilin binding EC50 for cyclophilin A; cited from earlier work
# [3] = system: multi-genotype HCV GT1a to 4a; conditions: cited from earlier work
# [4] = system: HCV; conditions: reported by Hopkins et al. 2010; read-out: in vitro anti-HCV activity (EC50); cited from earlier work
# [5] = molecular target: Cyclophilin D (CyPD) (Homo sapiens, UniProt P30405); experiment: Cyclophilin D PPIase inhibition assay; assay type: biochemical
# [6] = molecular target: T1, Human recombinant CypA (Homo sapiens, UniProt P62937); experiment: Cyclophilin A PPIase inhibition, α-chymotrypsin-coupled assay; assay type: biochemical; conditions: 10 nM human recombinant CypA, 5° C, succinyl-AAPF-pNA substrate
# T1 construct: purchased Atgen
# Method: Inhibition of CyPA isomerase activity was assessed using the α-chymotrypsin-coupled assay adapted to a 96-well plate format. Human recombinant CypA (Atgen) was dissolved to 10 nM in isomerase buffer (50 mM Hepes, 100 mM NaCl, 1 mg/ml bovine serum albumin, 1 mg/ml a-chymotrypsin; pH 8). Succinyl-AAPF-pNA peptide substrate (Sigma) was dissolved to 3.2 mM in dried LiCl/trifluoroethanol. […] All solutions were equilibrated, and reactions conducted at 5° C. Reactions were initiated by mixing 95 μL reaction mix with 5 μL peptide preloaded in multiple wells of 96-well plates and measuring OD405 nm in each well at 6-sec intervals for 6 min using a BMG Polarstar Galaxy plate reader. Data were fitted with Graphpad Prism 6.0 to obtain first-order rate constants. Enzyme catalyzed rate constants were calculated by subtracting the rate constant from uncatalyzed reactions (no CypA), and the catalytic rate constants plotted as a function of inhibitor concentration to obtain IC50s (see […] et al., 2015, PLOS ONE).
# [7] = Hepatitis C virus, Huh-7, read-out: Antiviral activity
# [8] = HCV subgenomic replicon, Huh7 ET cells, luciferase end point, read-out: Antiviral activity
# Cyclophilin D (CyPD), sequence (P30405 30-207, species assumed): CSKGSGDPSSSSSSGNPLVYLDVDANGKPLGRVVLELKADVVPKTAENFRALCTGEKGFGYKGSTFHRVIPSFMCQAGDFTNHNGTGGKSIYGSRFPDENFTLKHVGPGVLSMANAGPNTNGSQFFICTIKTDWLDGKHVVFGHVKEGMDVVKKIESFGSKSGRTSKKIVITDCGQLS
# T1 sequence (P62937 whole entry): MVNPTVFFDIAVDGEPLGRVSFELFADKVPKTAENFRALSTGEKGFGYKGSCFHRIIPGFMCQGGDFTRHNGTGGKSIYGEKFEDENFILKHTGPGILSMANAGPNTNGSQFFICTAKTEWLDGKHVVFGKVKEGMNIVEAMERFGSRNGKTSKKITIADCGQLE
# cyclophilin A, sequence (P62937 whole entry): as above
molecule,measurement,setting,value
"CC[C@@H]1NC(=O)[C@H]([C@H](O)[C@H](C)CCCCCCNC(C)=O)N(C)C(=O)[C@H](C(C)C)N(C)C(=O)[C@H](CC(C)C)N(C)C(=O)[C@H](CC(C)C)N(C)C(=O)[C@@H](C)NC(=O)[C@H](C)NC(=O)[C@H](CC(C)C)N(C)C(=O)[C@H](C(C)C)NC(=O)[C@H](CC(C)C)N(C)C(=O)CN(C)C1=O [[8-(2-Acetamidoethyl)-6,7-dihydro-MeBmt]-1-cyclosporin]",IC50,[1]; [7],< 0.035 µM
CC=CCC(C)C(O)C1C(=O)NC(CC)C(=O)N(C)C(CSCCCCO)C(=O)N(C)C(CC(C)(C)O)C(=O)NC(C(C)C)C(=O)N(C)C(CC(C)C)C(=O)NC(C)C(=O)NC(C)C(=O)N(C)C(CC(C)C)C(=O)N(C)C(CC(C)C)C(=O)N(C)C(C(C)C)C(=O)N1C (centres unmarked) [STG-175],EC50,[2],0.0006 µM
same,cross-resistance with direct anti-viral agents (DAAs),[3],No cross-resistance is observed
same,viral replication rebound after cessation of drug treatment,[3]; compared with Sofosbuvir,no viral replication rebound is observed
same,EC50,"[3]; multi-genotype HCV GT1a to 4a, published, Gallay et al. 2016, read-out: anti-HCV activity EC50",0.0115 to 0.0389 µM
"CC[C@@H]1NC(=O)[C@H]([C@H](O)[C@H](C)CCCCCCNC(C)=O)N(C)C(=O)[C@H](C(C)C)N(C)C(=O)[C@H](CC(C)C)N(C)C(=O)[C@H](CC(C)C)N(C)C(=O)[C@@H](C)NC(=O)[C@H](C)NC(=O)[C@H](CC(C)C)N(C)C(=O)[C@H](C(C)C)NC(=O)[C@H](CC(C)(C)O)N(C)C(=O)CN(C)C1=O [[8-(2-Acetamidoethyl)-6,7-dihydro-MeBmt]-1-[(γ-hydroxy)-N-MeLeu]-4-cyclosporin]",IC50,[1]; [7],< 0.035 µM
"CC[C@@H]1NC(=O)[C@H]([C@H](O)[C@H](C)CCCCCCNC(C)=O)N(C)C(=O)[C@H](C(C)C)N(C)C(=O)[C@H](CC(C)C)N(C)C(=O)[C@H](CC(C)C)N(C)C(=O)[C@@H](C)NC(=O)[C@H](C)NC(=O)[C@H](CC(C)C)N(C)C(=O)[C@H](C(C)C)NC(=O)[C@H](CC(C)C)N(C)C(=O)[C@@H](CO)N(C)C1=O [[8-(2-Acetamidoethyl)-6,7-dihydro-MeBmt]-1-[(R)-hydroxymethyl-Sar]-3-cyclosporin] (cyclo(A[dA][NMeL][NMeL][NMeV][NMeThr(4R-Me,4-(CH2)6NHAc)][Abu][dNMeS][NMeL]V[NMeL]))",IC50,[1]; [7],< 0.035 µM
C/C=C/C[C@@H](C)[C@@H](O)[C@H]1C(=O)N[C@@H](CC)C(=O)N(C)[C@H](SCCN(C)C)C(=O)N(C)[C@@H](CC(C)(C)O)C(=O)N[C@@H](C(C)C)C(=O)N(C)[C@@H](CC(C)C)C(=O)N[C@@H](C)C(=O)N[C@H](C)C(=O)N(C)[C@@H](CC(C)C)C(=O)N(C)[C@@H](CC(C)C)C(=O)N(C)[C@@H](C(C)C)C(=O)N1C [SCY-635],EC50,[4],0.1 µM
C/C=C/C[C@@H](C)[C@@H](O)[C@H]1C(=O)N[C@@H](CC)C(=O)N(C)[C@H](SCCN(C)C)C(=O)N(C)[C@@H](CC(C)(C)O)C(=O)N[C@@H](C(C)C)C(=O)N(C)[C@@H](CC(C)C)C(=O)N[C@@H](C)C(=O)N[C@H](C)C(=O)N(C)[C@@H](CC(C)C)C(=O)N(C)[C@@H](CC(C)C)C(=O)N(C)[C@@H](C(C)C)C(=O)N1C,IC50,[1]; [7],0.035 to 0.09 µM
same,EC50,[5],0.004 to 0.01 µM
"CC[C@@H]1NC(=O)[C@H]([C@H](O)[C@H](C)CCCCCCNC(C)=O)N(C)C(=O)[C@H](C(C)C)N(C)C(=O)[C@H](CC(C)C)N(C)C(=O)[C@H](CC(C)C)N(C)C(=O)[C@@H](C)NC(=O)[C@H](C)NC(=O)[C@H](CC(C)C)N(C)C(=O)[C@H](C(C)C)NC(=O)[C@H](CC(C)C)N(C)C(=O)[C@@H](C)N(C)C1=O [[8-(2-Acetamidoethyl)-6,7-dihydro-MeBmt]-1-[(R)-Methyl]-3-cyclosporin] (cyclo(A[dA][NMeL][NMeL][NMeV][NMeThr(4R-Me,4-(CH2)6NHAc)][Abu][dNMeA][NMeL]V[NMeL]))",IC50,[1]; [7],< 0.035 µM
"C/C=C/C[C@@H](C)[C@@H](O)[C@H]1C(=O)N[C@@H](CC)C(=O)N(C)CC(=O)N(C)[C@@H](C(C)C)C(=O)N[C@@H](C(C)C)C(=O)N(C)[C@@H](CC(C)C)C(=O)N[C@@H](C)C(=O)N[C@H](C)C(=O)N(C)[C@@H](CC(C)C)C(=O)N(C)[C@@H](CC(C)C)C(=O)N(C)[C@@H](C(C)C)C(=O)N1C [[N-MeVal]-4-cyclosporin (SDZ 220-384), N-MeVal-4-Cyclosporin]",IC50,[1]; [8],0.09 to 0.25 µM
"C/C=C/C[C@@H](C)[C@@H](O)[C@H]1C(=O)N[C@@H](CC)C(=O)N(C)[C@H](SCCN(CC)CC)C(=O)N(C)[C@@H](C(C)CC)C(=O)N[C@@H](C(C)C)C(=O)N(C)[C@@H](CC(C)C)C(=O)N[C@@H](C)C(=O)N[C@H](C)C(=O)N(C)[C@@H](CC(C)C)C(=O)N(C)[C@@H](CC(C)C)C(=O)N(C)[C@@H](C(C)C)C(=O)N1C (stereo partly drawn) [(R)-2-(N,N-Diethylamino)ethylthio-Sar]-3-[N-MeIle]-4-cyclosporin] (cyclo(A[dA][NMeL][NMeL][NMeV][MeBmt][Abu][X1][NMeIle(3ξ)]V[NMeL]))",IC50,[1]; [8],< 0.035 µM
"CC[C@@H]1NC(=O)[C@H]([C@H](O)[C@H](C)CCCCCCNC(C)=O)N(C)C(=O)[C@H](C(C)C)N(C)C(=O)[C@H](CC(C)C)N(C)C(=O)[C@H](CC(C)C)N(C)C(=O)[C@@H](C)NC(=O)[C@H](C)NC(=O)[C@H](CC(C)C)N(C)C(=O)[C@H](C(C)C)NC(=O)[C@H](CC(C)C)N(C)C(=O)[C@@H](CSCCCCO)N(C)C1=O [[8-(2-Acetamidoethyl)-6,7-dihydro-MeBmt]-1-[(S)-(4-hydroxybutylthio)methyl-Sar]-3-cyclosporin] (cyclo(A[dA][NMeL][NMeL][NMeV][NMeThr(4R-Me,4-(CH2)6NHAc)][Abu][dNMeC](Butyl(4-OH))[NMeL]V[NMeL]))",IC50,[1]; [7],< 0.035 µM
same,IC50,[6],< 0.004 µM
same,EC50,[5],< 0.004 µM
"[8-(2-Acetamidoethyl)-6,7-dihydro-MeBmt]-1-[(S)-(4-hydroxybutylthio)methyl-Sar]-3-[(γ-hydroxy)-N-MeLeu]-4-cyclosporin",IC50,[1]; [8],< 0.035 µM
C/C=C/C[C@@H](C)[C@@H](O)[C@H]1C(=O)N[C@@H](CC)C(=O)N(C)[C@H](C)C(=O)N(CC)[C@@H](C(C)C)C(=O)N[C@@H](C(C)C)C(=O)N(C)[C@@H](CC(C)C)C(=O)N[C@@H](C)C(=O)N[C@H](C)C(=O)N(C)[C@@H](CC(C)C)C(=O)N(C)[C@@H](CC(C)C)C(=O)N(C)[C@@H](C(C)C)C(=O)N1C [Alisporivir],IC50,[1]; [7],< 0.035 µM
same,IC50,[6],< 0.004 µM
same,EC50,[5],< 0.004 µM
C/C=C/C[C@@H](C)[C@@H](O)[C@H]1C(=O)N[C@@H](CC)C(=O)N(C)[C@H](CSCCCCO)C(=O)N(C)[C@@H](CC(C)(C)O)C(=O)N[C@@H](C(C)C)C(=O)N(C)[C@@H](CC(C)C)C(=O)N[C@@H](C)C(=O)N[C@H](C)C(=O)N(C)[C@@H](CC(C)C)C(=O)N(C)[C@@H](CC(C)C)C(=O)N(C)[C@@H](C(C)C)C(=O)N1C [[(S)-(4-Hydroxylbutylthio)methyl-Sar]-3-[(γ-hydroxy)-N-MeLeu]-4-cyclosporin],IC50,[6],< 0.004 µM
same,EC50,[5],< 0.004 µM
"C/C=C/C[C@@H](C)[C@@H](O)[C@H]1C(=O)N[C@@H](CC)C(=O)N(C)CC(=O)N(C)[C@@H]([C@@H](C)CC)C(=O)N[C@@H](C(C)C)C(=O)N(C)[C@@H](CC(C)C)C(=O)N[C@@H](C)C(=O)N[C@H](C)C(=O)N(C)[C@@H](CC(C)C)C(=O)N(C)[C@@H](CC(C)C)C(=O)N(C)[C@@H](C(C)C)C(=O)N1C [[N-MeIle]-4-cyclosporin (SDZ-NIM-811), N-MeIle-4-Cyclosporin]",IC50,[1]; [7],0.09 to 0.25 µM
